Reference: article PMC6566077 (Chemical Science, 2019)
In brackets after ≈: the same amount, converted by molar mass. Where two headings read alike, the source gives them in different places.

Assays:
Escherichia coli = assay: microbe, parasite or virus in culture; assay type: cell-based, Escherichia coli (Top 10)
Mycobacterium smegmatis = assay: microbe, parasite or virus in culture; assay type: cell-based, Mycobacterium smegmatis MC2155; details: for MIC: Mycolicibacterium smegmatis, read-out: MIC Mycobacteria, Mycobacterium smegmatis
[1] = tested on: Mycobacterium tuberculosis; assay: microbe, parasite or virus in culture; assay type: cell-based, Mycobacterium tuberculosis H37Rv
A549 cells [2] = assay: Cytotoxicity assay (resazurin, 24 h); details: 24 h exposure, viability by resazurin
Pseudomonas putida = assay: microbe, parasite or virus in culture; assay type: cell-based
Mycobacterium bovis BCG = assay: microbe, parasite or virus in culture; assay type: cell-based; details: for MIC: Mycobacterium tuberculosis variant bovis BCG, BCG, read-out: MIC Mycobacteria, Mycobacterium bovis BCG
Haemolysis assay = assay type: cell-based; details: sheep, ovine red blood cells, versus 100% lysis with lysis buffer
Description: (§1) Following incubation for 24 hours at
(§2) at 570 nm (BioTek Synergy HT microplate reader). All assays were undertaken with 3 independent experimental
(§3) Two-fold serial dilutions were then carried out diluting
(§4) 100 μL of ovine blood was
(§5) HT Microplate Reader). […] All assays
(§6) were undertaken with 3 independent experimental repeats.
(§7) DMSO compounds for compounds 3, 6 and 8.
(§8) Following addition of the
(§9) red colouring across whole well = agglutination). All assays were undertaken with three independent experimental

[3] = tested on: Mycobacterium tuberculosis H37Rv; assay: Minimum bactericidal concentration (MBC), CFU plating; assay type: cell-based; details: actively growing M. tuberculosis H37Rv, lowest concentration with no CFUs
Caco-2 cells = assay: Cytotoxicity assay (resazurin, 24 h); assay type: cell-based, human; details: 24 h exposure, viability by resazurin
M. tuberculosis H37Rv [4] = assay type: cell-based, Mycobacterium tuberculosis H37Rv; details: checkerboard
[5] = tested on: ConA mediated agglutination of ovine blood; assay type: cell-based
M. tuberculosis H37Rv [6] = assay type: cell-based, Mycobacterium tuberculosis H37Rv; details: for Outcome, interaction profile with Meropenem / ΣFIC, interaction profile with Meropenem: M. tuberculosis H37Rv, checkerboard; for Interaction with meropenem in checkerboard assay (words, Figure S7): representative checkerboard images
Jurkat E6.1 cells = assay: Cytotoxicity assay (resazurin, 24 h); assay type: cell-based, human; details: 24 h exposure, viability by resazurin
A549 cells [7] = tested on: A549 cells
ovine red blood cells = assay: Haemolysis assay; assay type: cell-based; details: 1 hour, tested at 12.5 mM due to solubility issues
Description: as §1, §2, §3, §4, §5, §6, §7, §8, §9

[8] = assay type: binding; details: for BLI binding to boronic acid functionalised sensor: components 0-100 µg/mL; for Kd: BLI, steady-state model, boronic acid functionalised sensor
[9] = Escherichia coli; read-out: MIC Gram-negative, Escherichia coli
[10] = Mycobacterium tuberculosis; read-out: MIC Mycobacteria, Mycobacterium tuberculosis
[11] = Pseudomonas putida; read-out: MIC Gram-negative, Pseudomonas putida
[12] = Mycobacterium tuberculosis; M. tuberculosis H37Rv, compound alone, REMA checkerboard (Table S3); read-out: MIC

## OB(O)c1ccccc1 [Compound 1, reference compound]
Escherichia coli; [9]
  MIC: 25 mM (≈ 3050 µg/mL)
Mycobacterium smegmatis
  MIC: 12.5 to 25 mM (≈ 1520 to 3050 µg/mL)
[1]; [10]
  MIC: 6.25 to 12.5 mM (≈ 762 to 1520 µg/mL)
A549 cells [2]
  A549 (MIC99): 50 mM
Pseudomonas putida; [11]
  MIC: 12.5 to 25 mM (≈ 1520 to 3050 µg/mL)
Mycobacterium bovis BCG
  MIC: 3.13 mM (≈ 382 µg/mL)
Haemolysis assay
  hemolysis at 1 h: 0%

## O=C(O)c1cccc(B(O)O)c1 [Compound 2, reference compound]
Escherichia coli; [9]
  MIC: > 25 mM
Mycobacterium smegmatis
  MIC: 12.5 to 25 mM (≈ 2070 to 4150 µg/mL)
[1]; [10]
  MIC: 6.25 to 12.5 mM (≈ 1040 to 2070 µg/mL)
A549 cells [2]
  A549 (MIC99): > 25 mM
Pseudomonas putida; [11]
  MIC: 12.5 to 25 mM (≈ 2070 to 4150 µg/mL)
Mycobacterium bovis BCG
  MIC: 12.5 mM (≈ 2070 µg/mL)
Haemolysis assay
  hemolysis at 1 h: 4.5%

## O=C(O)c1ccc(B(O)O)cc1 [Compound 3, reference compound]
Escherichia coli; Escherichia coli, read-out: MIC Gram-negative, Escherichia coli
  MIC: > 25 mM
Mycobacterium smegmatis
  MIC: 25 mM (≈ 4150 µg/mL)
[1]; Mycobacterium tuberculosis, read-out: MIC Mycobacteria, Mycobacterium tuberculosis
  MIC: 6.25 mM (≈ 1040 µg/mL)
A549 cells [2]
  A549 (MIC99): > 25 mM
Pseudomonas putida; Pseudomonas putida, read-out: MIC Gram-negative, Pseudomonas putida
  MIC: 25 mM (≈ 4150 µg/mL)
Mycobacterium bovis BCG
  MIC: 6.25 mM (≈ 1040 µg/mL)
Haemolysis assay
  hemolysis at 1 h: 0.9%

## O=C(NCCNC(=O)c1cccc(B(O)O)c1)c1cccc(B(O)O)c1 [Compound 4, N,N'-(ethylenediamine)bis(3-phenylboronic acid)amide]
Escherichia coli; [9]
  MIC: > 25 mM
[3]
  MBC: 6.25 mM (≈ 2220 µg/mL)
Caco-2 cells
  Caco-2 (MIC99): 50 mM
M. tuberculosis H37Rv [4]
  Outcome, interaction profile with Rifampicin: Additive (values in between correspond to additivity)
  ΣFIC, interaction profile with Rifampicin: 2
Mycobacterium smegmatis
  MIC: 3.13 mM (≈ 1110 µg/mL)
[1]; [12]
  MIC: 3.13 mM
[1]; [10]
  MIC: 1.56 to 3.13 mM (≈ 555 to 1110 µg/mL)
[5]
  ConA agglutination: No inhibition
M. tuberculosis H37Rv [6]
  Outcome, interaction profile with Meropenem: Additive (values in between correspond to additivity)
  ΣFIC, interaction profile with Meropenem: 1
A549 cells [2]
  A549 (MIC99): 25 mM
Pseudomonas putida; [11]
  MIC: > 25 mM
Jurkat E6.1 cells
  Jurkat (MIC99): 12.5 mM
Mycobacterium bovis BCG
  MIC: 0.78 mM (≈ 278 µg/mL)
Haemolysis assay
  hemolysis at 1 h: 0%

## O=C(NCCOCCOCCNC(=O)c1cccc(B(O)O)c1)c1cccc(B(O)O)c1 [Compound 5, N,N'-(2,2-(ethylenedioxy)bis(ethylamine))bis(3-phenylboronic acid)amide]
Escherichia coli; [9]
  MIC: > 25 mM
[3]
  MBC: 6.25 mM (≈ 2780 µg/mL)
Caco-2 cells
  Caco-2 (MIC99): 50 mM
M. tuberculosis H37Rv [4]
  Outcome, interaction profile with Rifampicin: Additive (values in between correspond to additivity)
  ΣFIC, interaction profile with Rifampicin: 2
Mycobacterium smegmatis
  MIC: 3.13 mM (≈ 1390 µg/mL)
[1]; [12]
  MIC: 3.13 mM
[1]; [10]
  MIC: 1.56 to 3.13 mM (≈ 693 to 1390 µg/mL)
[5]
  ConA agglutination: No inhibition
M. tuberculosis H37Rv [6]
  Outcome, interaction profile with Meropenem: Additive (values in between correspond to additivity)
  ΣFIC, interaction profile with Meropenem: 0.625
A549 cells [2]
  A549 (MIC99): 25 mM
Pseudomonas putida; [11]
  MIC: > 25 mM
Jurkat E6.1 cells
  Jurkat (MIC99): 12.5 mM
Mycobacterium bovis BCG
  MIC: 0.78 to 1.56 mM (≈ 346 to 693 µg/mL)
Haemolysis assay
  hemolysis at 1 h: 0%

## O=C(NCCCOCCOCCOCCCNC(=O)c1cccc(B(O)O)c1)c1cccc(B(O)O)c1 [Compound 6, N,N'-(4,7,10-trioxa-1,13-tridecanediamine)bis(3-phenylboronic acid)amide]
Escherichia coli; [9]
  MIC: > 25 mM
[3]
  MBC: 6.25 mM (≈ 3230 µg/mL)
Caco-2 cells
  Caco-2 (MIC99): 25 mM
M. tuberculosis H37Rv [4]
  Outcome, interaction profile with Rifampicin: Additive (values in between correspond to additivity)
  ΣFIC, interaction profile with Rifampicin: 2
Mycobacterium smegmatis
  MIC: 3.13 mM (≈ 1620 µg/mL)
[1]; [12]
  MIC: 1.56 mM
[1]; [10]
  MIC: 1.56 to 3.13 mM (≈ 805 to 1620 µg/mL)
[5]
  ConA agglutination: No inhibition
M. tuberculosis H37Rv [6]
  Outcome, interaction profile with Meropenem: Additive (values in between correspond to additivity)
  ΣFIC, interaction profile with Meropenem: 0.625
  Interaction with meropenem in checkerboard assay (words, Figure S7): additivity
A549 cells [2]
  A549 (MIC99): 25 mM
Pseudomonas putida; [11]
  MIC: > 25 mM
Jurkat E6.1 cells
  Jurkat (MIC99): 25 mM
Mycobacterium bovis BCG
  MIC: 0.78 to 1.56 mM (≈ 403 to 805 µg/mL)
Haemolysis assay
  hemolysis at 1 h: 0%

## O=C(NCCOCCOCCOCCOCCOCCOCCOCCOCCOCCOCCOCCOCCOCCOCCOCCOCCOCCOCCOCCOCCOCCOCCOCCNC(=O)c1cccc(B(O)O)c1)c1cccc(B(O)O)c1 [Compound 7, N,N'-(polyoxyethylenebis(amine))bis(3-phenylboronic acid)amide]
Escherichia coli; [9]
  MIC: > 25 mM
Mycobacterium smegmatis
  MIC: 25 mM (≈ 34200 µg/mL)
Pseudomonas putida; [11]
  MIC: > 25 mM
Mycobacterium bovis BCG
  MIC: > 25 mM

## O=C(CCN(CCOCCOCCN(CCC(=O)NCCOCCOCCNC(=O)c1cccc(B(O)O)c1)CCC(=O)NCCOCCOCCNC(=O)c1cccc(B(O)O)c1)CCC(=O)NCCOCCOCCNC(=O)c1cccc(B(O)O)c1)NCCOCCOCCNC(=O)c1cccc(B(O)O)c1 [Compound 8, 2,2’-(Ethylenedioxy)bis(ethylamine) G1 PAMAM tetra(3-phenylboronic acid)amide dendrimer]
Escherichia coli
  MIC Gram-negative, Escherichia coli: >25 mM
Mycobacterium smegmatis
  MIC Mycobacteria, Mycobacterium smegmatis: 0.78 mM (≈ 1210 µg/mL)
[1]
  MIC Mycobacteria, Mycobacterium tuberculosis: 0.78 to 1.56 mM
  MIC against Mtb: 0.78 mM (≈ 1210 µg/mL)
A549 cells [7]
  A549 (MIC99): > 25 mM
Pseudomonas putida
  MIC Gram-negative, Pseudomonas putida: >25 mM
Mycobacterium bovis BCG; resazurin reduction microtitre plate assay
  MIC Mycobacteria, Mycobacterium bovis BCG: 1.56 mM (≈ 2420 µg/mL)
Ovine red blood cells
  Haemolysis (%): 4.5%

## CC1(C)[C@H](C(=O)O)N2C(=O)C[C@H]2S1(=O)=O [Sulbactam, reference compound]
[1]; [12]
  MIC: 0.134 mM
M. tuberculosis H37Rv [6]
  Outcome, interaction profile with Meropenem: Synergistic (ΣFICs of ≤0.5 designate synergistic activity)
  ΣFIC, interaction profile with Meropenem: 0.313
  Interaction with meropenem in checkerboard assay (words, Figure S7): synergistic activity
M. tuberculosis H37Rv [6]; listed as sulbactam
  ΣFIC, interaction profile with Meropenem: 0.3

## Galactan [reference compound]
[8]
  BLI binding to boronic acid functionalised sensor: no binding was observed

## Lipoarabinomannan [LAM]
[8]
  Kd: 41.5 μg mL^–1
  BLI binding to boronic acid functionalised sensor: interacted strongly

## Lipomannan [LM]
[8]
  BLI binding to boronic acid functionalised sensor: interacted strongly

## Phosphatidylinositol Mannoside 6 [PIM6]
[8]
  BLI binding to boronic acid functionalised sensor: weak binding affinity

## Phosphatidylinositol Mannosides 1 & 2 [PIM 1 + 2]
[8]
  BLI binding to boronic acid functionalised sensor: very weak binding

## Trehalose Dimycolate [TDM]
[8]; read-out: Kd
  Kd: 4 µM
[8]
  BLI binding to boronic acid functionalised sensor: interacted strongly

## Trehalose Monomycolate [TMM]
[8]; read-out: Kd
  Kd: 12 µM
[8]
  BLI binding to boronic acid functionalised sensor: interacted strongly

## dextran [reference compound]
[8]
  BLI binding to boronic acid functionalised sensor: no binding was observed

## lipopolysaccharide [LPS, reference compound]
[8]
  BLI binding to boronic acid functionalised sensor: weak binding

## monosialodihexosylganglioside [GM3, reference compound]
[8]
  BLI binding to boronic acid functionalised sensor: no detectable binding

## mycolic acid methyl esters [MAMEs]
[8]
  BLI binding to boronic acid functionalised sensor: no detectable binding
